Test results taken from patent US5294611A, “Angiotensin II receptor blocking 2,3,6 substituted quinazolinones” (American Cyanamid Company, priority 1993, dated 1994).
Where two headings read alike, the source gives them in different places.

Tested on: Angiotensin II (AII) vasopressor response
Experiment: AII Challenge: antagonism of angiotensin II vasopressor response in conscious spontaneously hypertensive rats
Type: in vivo, rat (male okamoto-Aoki SHR)
Settings: for inhibition in vivo at 3 mg/kg / inhibition in vivo at 1 mg/kg: Rattus norvegicus, iv; for inhibition in vivo at 3 mg/kg / Average Change / inhibition in vivo at 1 mg/kg: SHR n=2; for inhibition in vivo at 3 mg/kg: read-out: Inhibition; for Change: single SHR
From the text: Conscious Male okamoto-Aoki SHR, 16-20 weeks old, weighing approximately 330 g are purchased from Charles River Labs (Wilmington, Mass.). Conscious rats are restrained in a supine position with elastic tape. The area at the base of the tail is locally anesthetized by subcutaneous infiltration with 2% procaine. […] The cannula is secured, heparinized (1,000 I.U./ml), sealed and the wound is closed. The animals are placed in plastic restraining cages in an upright position. The cannula is attached to a Statham P23Db pressure transducer, and pulsatile blood pressure is recorded to 10-15 minutes with a Gould Brush recorder. […] Angiotensin II (human sequence, Sigma Chem. Co., St. Louis, Mo.) of 0.05 and 0.1 ug/kg i.v. is injected into all rats (predosing response). Then a test compound, vehicle or a known angiotensin II antagonist is administered i.v., i.p. or orally to each set of rats. […] The vasopressor response of angiotensin II is measured for the increase in systolic blood pressure in mmHg.

[1] = 0.5 h, 3 mg/kg I.V., AII 0.05 mcg/kg IV, 30 min post dose
[2] = 0.5 h, 3 mg/kg I.V., AII 0.1 mcg/kg IV, 30 min post dose
[3] = 1 h, 3 mg/kg I.V., AII 0.05 mcg/kg IV, 60 min post dose
[4] = 1 h, 3 mg/kg I.V., AII 0.1 mcg/kg IV, 60 min post dose
[5] = 2 h, 3 mg/kg I.V., AII 0.05 mcg/kg IV, 120 min post dose
[6] = 2 h, 3 mg/kg I.V., AII 0.1 mcg/kg IV, 120 min post dose
[7] = 3 h, 3 mg/kg I.V., AII 0.05 mcg/kg IV, 180 min post dose
[8] = 3 h, 3 mg/kg I.V., AII 0.1 mcg/kg IV, 180 min post dose
[9] = 4 h, 3 mg/kg I.V., AII 0.05 mcg/kg IV, 240 min post dose
[10] = 4 h, 3 mg/kg I.V., AII 0.1 mcg/kg IV, 240 min post dose
[11] = 5 h, 3 mg/kg I.V., AII 0.05 mcg/kg IV, 300 min post dose
[12] = 5 h, 3 mg/kg I.V., AII 0.1 mcg/kg IV, 300 min post dose
[13] = […], 3 mg/kg I.V., AII 0.05 mcg/kg IV, 90 min post dose
[14] = […], 3 mg/kg I.V., AII 0.1 mcg/kg IV, 90 min post dose
[15] = 3 mg/kg I.V., AII 0.05 mcg/kg IV, 30 min post dose
[16] = 3 mg/kg I.V., AII 0.05 mcg/kg IV, 60 min post dose
[17] = 3 mg/kg I.V., AII 0.05 mcg/kg IV, 90 min post dose
[18] = 3 mg/kg I.V., AII 0.05 mcg/kg IV, 120 min post dose
[19] = 3 mg/kg I.V., AII 0.05 mcg/kg IV, 180 min post dose
[20] = 3 mg/kg I.V., AII 0.05 mcg/kg IV, 240 min post dose
[21] = 3 mg/kg I.V., AII 0.1 mcg/kg IV, 30 min post dose
[22] = 3 mg/kg I.V., AII 0.1 mcg/kg IV, 60 min post dose
[23] = 3 mg/kg I.V., AII 0.1 mcg/kg IV, 90 min post dose
[24] = 3 mg/kg I.V., AII 0.1 mcg/kg IV, 120 min post dose
[25] = 3 mg/kg I.V., AII 0.1 mcg/kg IV, 180 min post dose
[26] = 3 mg/kg I.V., AII 0.1 mcg/kg IV, 240 min post dose
[27] = 3 mg/kg I.V., AII 0.1 mcg/kg IV, 300 min post dose
[28] = 3 mg/kg I.V., AII 0.05 mcg/kg IV, 300 min post dose
[29] = 1 mg/kg I.V., AII 0.05 mcg/kg IV, 60 min post dose
[30] = 1 mg/kg I.V., AII 0.05 mcg/kg IV, 300 min post dose

SMILES: CCCCc1nc2ccc([C@H]3[C@@H]4CCCCCC[C@@H]4ON3C)cc2c(=O)n1Cc1ccc(-c2ccccc2-c2nnn[nH]2)cc1 (relative stereo) [Example 52]
- inhibition in vivo at 3 mg/kg [1]: 89%
- inhibition in vivo at 3 mg/kg [2]: 76%
- inhibition in vivo at 3 mg/kg [3]: 80%
- inhibition in vivo at 3 mg/kg [4]: 59%
- inhibition in vivo at 3 mg/kg [5]: 63%
- inhibition in vivo at 3 mg/kg [6]: 59%
- inhibition in vivo at 3 mg/kg [7]: 20%
- inhibition in vivo at 3 mg/kg [8]: 12%
- inhibition in vivo at 3 mg/kg [9]: 27%
- inhibition in vivo at 3 mg/kg [10]: 47%
- inhibition in vivo at 3 mg/kg [11]: 33%
- inhibition in vivo at 3 mg/kg [12]: 15%
- inhibition in vivo at 3 mg/kg [13]: 24%
- inhibition in vivo at 3 mg/kg [14]: 53%
- Average Change [15]: 4 mmHg
- Average Change [16]: 7.5 mmHg
- Average Change [17]: 28.5 mmHg
- Average Change [18]: 14 mmHg
- Average Change [19]: 30 mmHg
- Average Change [20]: 27.5 mmHg
- Average Change [21]: 10 mmHg
- Average Change [22]: 17.5 mmHg
- Average Change [23]: 20 mmHg
- Average Change [24]: 17.5 mmHg
- Average Change [25]: 37.5 mmHg
- Average Change [26]: 22.5 mmHg
- Average Change [27]: 36 mmHg
- Change [19]: 30 mmHg
- Change [28]: 25 mmHg
- Change [21]: 10 mmHg

SMILES: CCCCc1nc2ccc(C3CC4CCCCN3O4)cc2c(=O)n1Cc1ccc(-c2ccccc2-c2nnn[nH]2)cc1 (stereo not drawn) [Example 18, cis-2-Butyl-6-(9-oxa-1-azabicyclo[4.2.1]non-8-yl)-3-[[2'-(1H-tetrazol-5-yl)[1,1'-biphenyl]-4-yl-methyl-4(3H)-quinazolinone]
- inhibition in vivo at 3 mg/kg [1]: 68%
- inhibition in vivo at 3 mg/kg [2]: 75%
- inhibition in vivo at 3 mg/kg [3]: 53%
- inhibition in vivo at 3 mg/kg [4]: 60%
- inhibition in vivo at 3 mg/kg [5]: 5%
- inhibition in vivo at 3 mg/kg [6]: 0%
- inhibition in vivo at 3 mg/kg [7]: 58%
- inhibition in vivo at 3 mg/kg [8]: 50%
- inhibition in vivo at 3 mg/kg [9]: 63%
- inhibition in vivo at 3 mg/kg [10]: 10%
- inhibition in vivo at 3 mg/kg [11]: 11%
- inhibition in vivo at 3 mg/kg [12]: 45%
- inhibition in vivo at 3 mg/kg [13]: 47%
- inhibition in vivo at 3 mg/kg [14]: 45%
- Average Change [15]: 15 mmHg
- Average Change [16]: 22.5 mmHg
- Average Change [17]: 25 mmHg
- Average Change [18]: 45 mmHg
- Average Change [19]: 20 mmHg
- Average Change [20]: 17.5 mmHg
- Average Change [28]: 42.5 mmHg
- Average Change [21]: 12.5 mmHg
- Average Change [22]: 20 mmHg
- Average Change [23]: 27.5 mmHg
- Average Change [24]: 50 mmHg
- Average Change [25]: 25 mmHg
- Average Change [26]: 45 mmHg
- Average Change [27]: 27.5 mmHg

SMILES: CCCCc1nc2ccc(C3C4CCCN3OC4)cc2c(=O)n1Cc1ccc(-c2ccccc2-c2nnn[nH]2)cc1 (stereo not shown) [Example 21]
- inhibition in vivo at 1 mg/kg (0.5 h, 1 mg/kg I.V., AII 0.05 mcg/kg IV, 30 min post dose): 53%
- inhibition in vivo at 1 mg/kg (0.5 h, 1 mg/kg I.V., AII 0.1 mcg/kg IV, 30 min post dose): 53%
- inhibition in vivo at 1 mg/kg (1 h, 1 mg/kg I.V., AII 0.05 mcg/kg IV, 60 min post dose): 68%
- inhibition in vivo at 1 mg/kg (1 h, 1 mg/kg I.V., AII 0.1 mcg/kg IV, 60 min post dose): 56%
- inhibition in vivo at 1 mg/kg (2 h, 1 mg/kg I.V., AII 0.05 mcg/kg IV, 120 min post dose): 63%
- inhibition in vivo at 1 mg/kg (2 h, 1 mg/kg I.V., AII 0.1 mcg/kg IV, 120 min post dose): 61%
- inhibition in vivo at 1 mg/kg (3 h, 1 mg/kg I.V., AII 0.05 mcg/kg IV, 180 min post dose): 63%
- inhibition in vivo at 1 mg/kg (3 h, 1 mg/kg I.V., AII 0.1 mcg/kg IV, 180 min post dose): 47%
- inhibition in vivo at 1 mg/kg (4 h, 1 mg/kg I.V., AII 0.05 mcg/kg IV, 240 min post dose): 42%
- inhibition in vivo at 1 mg/kg (4 h, 1 mg/kg I.V., AII 0.1 mcg/kg IV, 240 min post dose): 61%
- inhibition in vivo at 1 mg/kg (5 h, 1 mg/kg I.V., AII 0.05 mcg/kg IV, 300 min post dose): 37%
- inhibition in vivo at 1 mg/kg (5 h, 1 mg/kg I.V., AII 0.1 mcg/kg IV, 300 min post dose): 34%
- inhibition in vivo at 1 mg/kg ([…], 1 mg/kg I.V., AII 0.05 mcg/kg IV, 90 min post dose): 63%
- inhibition in vivo at 1 mg/kg ([…], 1 mg/kg I.V., AII 0.1 mcg/kg IV, 90 min post dose): 52%
- Average Change (1 mg/kg I.V., AII 0.05 mcg/kg IV, 30 min post dose): 22.5 mmHg
- Average Change [29]: 15 mmHg
- Average Change (1 mg/kg I.V., AII 0.05 mcg/kg IV, 90 min post dose): 17.5 mmHg
- Average Change (1 mg/kg I.V., AII 0.05 mcg/kg IV, 120 min post dose): 17.5 mmHg
- Average Change (1 mg/kg I.V., AII 0.05 mcg/kg IV, 180 min post dose): 17.5 mmHg
- Average Change (1 mg/kg I.V., AII 0.05 mcg/kg IV, 240 min post dose): 27.5 mmHg
- Average Change [30]: 30 mmHg
- Average Change (1 mg/kg I.V., AII 0.1 mcg/kg IV, 30 min post dose): 27 mmHg
- Average Change (1 mg/kg I.V., AII 0.1 mcg/kg IV, 60 min post dose): 25 mmHg
- Average Change (1 mg/kg I.V., AII 0.1 mcg/kg IV, 90 min post dose): 27.5 mmHg
- Average Change (1 mg/kg I.V., AII 0.1 mcg/kg IV, 120 min post dose): 22.5 mmHg
- Average Change (1 mg/kg I.V., AII 0.1 mcg/kg IV, 180 min post dose): 30 mmHg
- Average Change (1 mg/kg I.V., AII 0.1 mcg/kg IV, 240 min post dose): 22.5 mmHg
- Average Change (1 mg/kg I.V., AII 0.1 mcg/kg IV, 300 min post dose): 37.5 mmHg
- Change [29]: 15 mmHg
- Change [30]: 30 mmHg
